Legend:
[1] = target: T1, Gal-1 (Homo sapiens, UniProt P09382); assay: Competition pull-down with lactose; format: binding; conditions: H14 library; lactose 10 mM; read-out: Surface mapping KD (apparent), competition
T1 construct: made in house; host or cells: E. coli BL21(DE3)
Method in brief: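 His6-tagged proteins immobilized on Co-NTA resin at 64 µM final with 64-member LSM foldamer sublibraries (1 M each, as printed) in pH 7.4 HEPES/NaCl buffers (Ca2+/TCEP per target), 30 min RT; competitor peptides 200 µM final, lactose 10 mM for Gal-1. Bound fractions from LC-MS loss vs protein-free resin; KD assuming 1:1 binding.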

[2] = target: T2, S100A4 (Homo sapiens, UniProt P26447); assay: Pull-down assay with immobilized protein and LSM libraries; format: binding; conditions: for Kd: H14 library, 1:1 binding assumed, read-out: Surface mapping KD (apparent); for Affinity class of probe (high, medium, low) in pull-down: H14 probes selected for validation
T2 construct: made in house; host or cells: Escherichia coli BL21(DE3)
T2 sequence (P26447 whole entry): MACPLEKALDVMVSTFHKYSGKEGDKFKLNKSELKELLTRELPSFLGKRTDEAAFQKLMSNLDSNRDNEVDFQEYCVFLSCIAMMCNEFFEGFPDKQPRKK
Method in brief: (§1)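 Buffers were HEPES pH 7.4 with 150 mM NaCl, plus 1 mM TCEP and 1 mM CaCl2 (50 mM HEPES) for S100A4 and S100B, 1 mM TCEP for Gal-1, and no additive for RecQ-WH. Immobilized protein at 64 µM was equilibrated 30 min with the LSM sublibrary, and unbound probes were measured by LC-MS.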

[3] = target: T3, S100B (Homo sapiens, UniProt P04271); assay: as above; format: binding; conditions: for Kd: H14 library, 1:1 binding assumed, read-out: Surface mapping KD (apparent); for Affinity class of probe (high, medium, low) in pull-down: H14 probes selected for validation
T3 construct: made in house; host or cells: Escherichia coli BL21(DE3)
T3 sequence (P04271 1-92): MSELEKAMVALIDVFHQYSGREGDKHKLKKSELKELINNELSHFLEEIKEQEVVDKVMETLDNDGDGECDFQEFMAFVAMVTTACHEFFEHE
Method in brief: as §1

[4] = target: T1, Gal-1; assay: as above; format: binding; conditions: H14 library; 1:1 binding assumed; read-out: Surface mapping KD (apparent)
Method in brief: as §1

[5] = target: T4, CaM (Bos taurus, UniProt P62157); assay: Competition pull-down with native ligand TRPV1-Ct15; format: binding, bovine; conditions: H14 library; competitor peptide 200 µM; read-out: Surface mapping KD (apparent), competition
T4 construct: made in house; host or cells: E. coli BL21 (DE3)

[6] = target: T5, RecQ-WH (Escherichia coli, UniProt P15043); assay: Pull-down assay with immobilized protein and LSM libraries; set-up: species or system E. coli; conditions: H14 library; 1:1 binding assumed; read-out: Surface mapping KD (apparent)
T5 construct: coding for residues 408– 523 of E. coli RecQ; made in house; host or cells: E. coli BL21(DE3)
T5 sequence (P15043 408-523): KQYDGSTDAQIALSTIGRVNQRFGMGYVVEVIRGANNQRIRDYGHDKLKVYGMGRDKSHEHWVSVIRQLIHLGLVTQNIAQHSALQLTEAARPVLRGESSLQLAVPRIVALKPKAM
Method in brief: as §1

[7] = target: T5, RecQ-WH; assay: Competition pull-down with native ligand SSB-Ct8; format: binding, E. coli; conditions: H14 library; competitor peptide 200 µM; read-out: Surface mapping KD (apparent), competition
[8] = target: T3, S100B; assay: Competition pull-down with native ligand RSK1 (689–735); format: binding; conditions: H14 library; competitor peptide 200 µM; read-out: Surface mapping KD (apparent), competition
[9] = target: T4, CaM; assay: Pull-down assay with immobilized protein and LSM libraries; format: binding, bovine; conditions: H14 library; 1:2 stoichiometry assumed; read-out: Surface mapping KD (apparent)
Method in brief: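 CaM buffer was 20 mM HEPES pH 7.4, 150 mM NaCl, 5 mM CaCl2. LSM sublibrary members ([…]) incubated 30 min, RT, with equimolar His-tagged protein on Co-NTA resin. HPLC-MS measured unbound probes; bound fraction relative to resin-only background gave dissociation constants.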

[10] = target: T2, S100A4; assay: Competition pull-down with native ligand NMIIA (1893–1923); format: binding; conditions: H14 library; competitor peptide 200 µM; read-out: Surface mapping KD (apparent), competition

T1 sequence (P09382 whole entry): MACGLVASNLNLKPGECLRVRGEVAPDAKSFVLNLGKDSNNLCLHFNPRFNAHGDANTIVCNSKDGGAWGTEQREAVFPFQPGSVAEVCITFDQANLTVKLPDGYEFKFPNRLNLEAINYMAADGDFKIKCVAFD

SMILES | Kd [1] | Kd [2] | Kd [3] | Kd [4] | Kd [5] | Kd [6] | Kd [7] | Kd [8] | Kd [9] | Kd [10] | Affinity class of probe (high, medium, low) in pull-down [2] | Affinity class of probe (high, medium, low) in pull-down [3] | Binding ([2]; H14 probes) | Binding ([3]; H14 probes)
CC(C)[C@@H](CC(=O)N[C@H]1CCCC[C@@H]1C(N)=O)NC(=O)[C@H]1CCCC[C@@H]1NC(=O)[C@H]1CCCC[C@@H]1NC(=O)C[C@H](Cc1c[nH]c2ccccc12)NC(=O)[C@H]1CCCC[C@@H]1N [H14 WV] | 224 µM | 13 µM | 16 µM | 143 µM | 85 µM | 102 µM | 268 µM | 116 µM | 2 µM | – | – | – | – | –
NC(=O)CC[C@@H](CC(=O)N[C@H]1CCCC[C@@H]1C(=O)N[C@H]1CCCC[C@@H]1C(=O)N[C@H](CC(=O)N[C@H]1CCCC[C@@H]1C(N)=O)Cc1c[nH]c2ccccc12)NC(=O)[C@H]1CCCC[C@@H]1N [H14 QW] | 183 µM | – | 79 µM | 169 µM | 168 µM | 143 µM | 341 µM | 473 µM | 27 µM | – | – | – | – | –
N=C(N)NCCC[C@@H](CC(=O)N[C@H]1CCCC[C@@H]1C(=O)N[C@H]1CCCC[C@@H]1C(=O)N[C@H](CC(=O)N[C@H]1CCCC[C@@H]1C(N)=O)Cc1ccc(O)cc1)NC(=O)[C@H]1CCCC[C@@H]1N [H14 RY] | – | 112 µM | 40 µM | – | – | – | – | – | 16 µM | 324 µM | – | – | – | –
CC(C)C[C@@H](CC(=O)N[C@H]1CCCC[C@@H]1C(N)=O)NC(=O)[C@H]1CCCC[C@@H]1NC(=O)[C@H]1CCCC[C@@H]1NC(=O)C[C@@H](NC(=O)[C@H]1CCCC[C@@H]1N)[C@@H](C)O [H14 TL] | 266 µM | 7 µM | 183 µM | 175 µM | – | – | – | – | 69 µM | 473 µM | – | – | – | –
CC[C@H](C)[C@@H](CC(=O)N[C@H]1CCCC[C@@H]1C(=O)N[C@H]1CCCC[C@@H]1C(=O)N[C@@H](CCSC)CC(=O)N[C@H]1CCCC[C@@H]1C(N)=O)NC(=O)[C@H]1CCCC[C@@H]1N [H14 IM] | – | 3 µM | 47 µM | 238 µM | – | 340 µM | – | 163 µM | 11 µM | 217 µM | – | – | – | –
NC(=O)[C@H]1CCCC[C@@H]1NC(=O)C[C@H](Cc1ccccc1)NC(=O)[C@H]1CCCC[C@@H]1NC(=O)[C@H]1CCCC[C@@H]1NC(=O)C[C@H](Cc1ccc(O)cc1)NC(=O)[C@H]1CCCC[C@@H]1N [H14 YF] | 234 µM | 25 µM | 34 µM | 162 µM | 119 µM | 84 µM | 400 µM | 149 µM | 2 µM | – | medium | medium | – | –
CC(C)[C@@H](CC(=O)N[C@H]1CCCC[C@@H]1C(N)=O)NC(=O)[C@H]1CCCC[C@@H]1NC(=O)[C@H]1CCCC[C@@H]1NC(=O)C[C@@H](NC(=O)[C@H]1CCCC[C@@H]1N)C(C)C [H14 VV] | – | 3 µM | 73 µM | 244 µM | – | – | – | 198 µM | 7 µM | 356 µM | – | – | – | –
NC(=O)[C@H]1CCCC[C@@H]1NC(=O)C[C@H](Cc1ccccc1)NC(=O)[C@H]1CCCC[C@@H]1NC(=O)[C@H]1CCCC[C@@H]1NC(=O)C[C@H](Cc1ccccc1)NC(=O)[C@H]1CCCC[C@@H]1N [H14 FF] | 108 µM | 12 µM | 16 µM | 75 µM | 47 µM | 134 µM | 312 µM | 180 µM | 1.2 µM | – | – | – | – | –
CC(C)[C@@H](CC(=O)N[C@H]1CCCC[C@@H]1C(N)=O)NC(=O)[C@H]1CCCC[C@@H]1NC(=O)[C@H]1CCCC[C@@H]1NC(=O)C[C@H](Cc1ccc(O)cc1)NC(=O)[C@H]1CCCC[C@@H]1N [H14 YV] | 223 µM | 23 µM | 112 µM | 140 µM | 448 µM | 212 µM | 472 µM | 372 µM | 2 µM | – | – | – | – | –
CSCC[C@@H](CC(=O)N[C@H]1CCCC[C@@H]1C(N)=O)NC(=O)[C@H]1CCCC[C@@H]1NC(=O)[C@H]1CCCC[C@@H]1NC(=O)C[C@H](Cc1ccccc1)NC(=O)[C@H]1CCCC[C@@H]1N [H14 FM] | 250 µM | 22 µM | 19 µM | 284 µM | 109 µM | 225 µM | 454 µM | 352 µM | 2 µM | – | – | – | – | –
CC(C)C[C@@H](CC(=O)N[C@H]1CCCC[C@@H]1C(N)=O)NC(=O)[C@H]1CCCC[C@@H]1NC(=O)[C@H]1CCCC[C@@H]1NC(=O)C[C@@H](NC(=O)[C@H]1CCCC[C@@H]1N)C(C)C [H14 VL] | 220 µM | 3 µM | 43 µM | 66 µM | – | 366 µM | – | 180 µM | 13 µM | 246 µM | high | medium | – | –
CSCC[C@@H](CC(=O)N[C@H]1CCCC[C@@H]1C(N)=O)NC(=O)[C@H]1CCCC[C@@H]1NC(=O)[C@H]1CCCC[C@@H]1NC(=O)C[C@H](Cc1c[nH]c2ccccc12)NC(=O)[C@H]1CCCC[C@@H]1N [H14 WM] | 305 µM | 43 µM | 45 µM | 145 µM | 251 µM | 81 µM | 188 µM | 125 µM | 1.4 µM | – | – | – | – | –
CC[C@H](C)[C@@H](CC(=O)N[C@H]1CCCC[C@@H]1C(=O)N[C@H]1CCCC[C@@H]1C(=O)N[C@H](CC(=O)N[C@H]1CCCC[C@@H]1C(N)=O)C(C)C)NC(=O)[C@H]1CCCC[C@@H]1N [H14 IV] | 114 µM | 3 µM | 43 µM | 57 µM | – | 366 µM | – | 178 µM | 3 µM | 187 µM | – | – | – | –
CC[C@H](C)[C@@H](CC(=O)N[C@H]1CCCC[C@@H]1C(N)=O)NC(=O)[C@H]1CCCC[C@@H]1NC(=O)[C@H]1CCCC[C@@H]1NC(=O)C[C@@H](NC(=O)[C@H]1CCCC[C@@H]1N)[C@@H](C)O [H14 TI] | 266 µM | 7 µM | 183 µM | 175 µM | – | – | – | – | 69 µM | 473 µM | high | low | binds | does not
CC(C)[C@@H](CC(=O)N[C@H]1CCCC[C@@H]1C(=O)N[C@H]1CCCC[C@@H]1C(=O)N[C@H](CC(=O)N[C@H]1CCCC[C@@H]1C(N)=O)Cc1c[nH]c2ccccc12)NC(=O)[C@H]1CCCC[C@@H]1N [H14 VW] | 211 µM | 11 µM | 16 µM | 98 µM | 153 µM | 221 µM | 452 µM | 60 µM | 13 µM | – | – | – | – | –
NC(=O)[C@H]1CCCC[C@@H]1NC(=O)C[C@H](Cc1ccccc1)NC(=O)[C@H]1CCCC[C@@H]1NC(=O)[C@H]1CCCC[C@@H]1NC(=O)C[C@H](Cc1c[nH]c2ccccc12)NC(=O)[C@H]1CCCC[C@@H]1N [H14 WF] | 59 µM | 10 µM | 14 µM | 38 µM | 29 µM | 62 µM | 106 µM | 177 µM | 4 µM | – | – | – | – | –
CC[C@H](C)[C@@H](CC(=O)N[C@H]1CCCC[C@@H]1C(N)=O)NC(=O)[C@H]1CCCC[C@@H]1NC(=O)[C@H]1CCCC[C@@H]1NC(=O)C[C@@H](NC(=O)[C@H]1CCCC[C@@H]1N)C(C)C [H14 VI] | 293 µM | 3 µM | 43 µM | 105 µM | – | 366 µM | – | 181 µM | 13 µM | 246 µM | – | – | – | –
CC(C)C[C@@H](CC(=O)N[C@H]1CCCC[C@@H]1C(=O)N[C@H]1CCCC[C@@H]1C(=O)N[C@H](CC(=O)N[C@H]1CCCC[C@@H]1C(N)=O)C(C)C)NC(=O)[C@H]1CCCC[C@@H]1N [H14 LV] | 128 µM | 5 µM | 56 µM | 68 µM | – | 177 µM | – | 213 µM | 3 µM | 192 µM | – | – | – | –
